Assay results taken from ChEMBL document CHEMBL4725218, “Deep Learning Enhancing Kinome-Wide Polypharmacology Profiling: Model Construction and Experiment Validation” (J Med Chem, 2020).

How the values were obtained:
[1] = target: NT-3 growth factor receptor (Homo sapiens) (UniProt Q16288); assay: Inhibition of human TRKC assessed as remaining enzyme activity at 1 uM
[2] = target: Tyrosine-protein kinase ABL2 (Mus musculus) (UniProt Q4JIM5); assay: Inhibition of mouse ARG assessed as remaining enzyme activity at 0.1 uM
Tyrosine-protein kinase ABL2 (Mus musculus), sequence (Q4JIM5 whole entry): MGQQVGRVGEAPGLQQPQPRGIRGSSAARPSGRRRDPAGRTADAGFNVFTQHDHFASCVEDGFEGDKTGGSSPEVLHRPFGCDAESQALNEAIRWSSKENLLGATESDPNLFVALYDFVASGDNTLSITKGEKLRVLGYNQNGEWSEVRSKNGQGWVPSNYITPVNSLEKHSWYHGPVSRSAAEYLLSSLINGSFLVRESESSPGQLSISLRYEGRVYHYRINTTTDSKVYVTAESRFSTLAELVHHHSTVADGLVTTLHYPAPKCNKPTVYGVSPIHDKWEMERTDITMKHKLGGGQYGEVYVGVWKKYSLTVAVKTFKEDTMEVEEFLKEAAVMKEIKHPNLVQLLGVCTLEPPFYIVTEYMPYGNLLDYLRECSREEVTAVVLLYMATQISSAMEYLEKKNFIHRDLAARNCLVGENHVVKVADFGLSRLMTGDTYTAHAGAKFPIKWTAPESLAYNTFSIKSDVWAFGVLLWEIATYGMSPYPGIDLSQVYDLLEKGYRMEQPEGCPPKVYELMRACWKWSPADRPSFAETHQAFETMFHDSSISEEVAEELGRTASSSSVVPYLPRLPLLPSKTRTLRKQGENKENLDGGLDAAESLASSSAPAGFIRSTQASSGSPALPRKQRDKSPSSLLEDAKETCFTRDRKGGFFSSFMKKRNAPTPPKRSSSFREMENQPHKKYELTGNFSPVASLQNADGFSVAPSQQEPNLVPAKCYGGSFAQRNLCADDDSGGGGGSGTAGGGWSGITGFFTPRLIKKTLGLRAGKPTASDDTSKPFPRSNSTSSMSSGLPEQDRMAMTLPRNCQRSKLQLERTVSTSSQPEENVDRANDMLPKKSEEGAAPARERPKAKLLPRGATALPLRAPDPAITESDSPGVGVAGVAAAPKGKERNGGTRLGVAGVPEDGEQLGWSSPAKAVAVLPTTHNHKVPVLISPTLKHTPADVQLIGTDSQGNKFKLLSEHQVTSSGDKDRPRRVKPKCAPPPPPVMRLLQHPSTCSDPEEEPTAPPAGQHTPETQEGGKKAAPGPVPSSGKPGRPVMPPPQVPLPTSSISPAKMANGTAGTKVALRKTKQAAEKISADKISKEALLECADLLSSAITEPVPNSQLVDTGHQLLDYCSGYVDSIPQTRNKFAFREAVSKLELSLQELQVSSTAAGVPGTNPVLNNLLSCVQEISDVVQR

[3] = target: Tyrosine-protein kinase ABL1 (Mus musculus) (UniProt P00520); assay: Inhibition of mouse Abl assessed as remaining enzyme activity at 0.01 uM
Tyrosine-protein kinase ABL1 (Mus musculus), sequence (P00520 whole entry): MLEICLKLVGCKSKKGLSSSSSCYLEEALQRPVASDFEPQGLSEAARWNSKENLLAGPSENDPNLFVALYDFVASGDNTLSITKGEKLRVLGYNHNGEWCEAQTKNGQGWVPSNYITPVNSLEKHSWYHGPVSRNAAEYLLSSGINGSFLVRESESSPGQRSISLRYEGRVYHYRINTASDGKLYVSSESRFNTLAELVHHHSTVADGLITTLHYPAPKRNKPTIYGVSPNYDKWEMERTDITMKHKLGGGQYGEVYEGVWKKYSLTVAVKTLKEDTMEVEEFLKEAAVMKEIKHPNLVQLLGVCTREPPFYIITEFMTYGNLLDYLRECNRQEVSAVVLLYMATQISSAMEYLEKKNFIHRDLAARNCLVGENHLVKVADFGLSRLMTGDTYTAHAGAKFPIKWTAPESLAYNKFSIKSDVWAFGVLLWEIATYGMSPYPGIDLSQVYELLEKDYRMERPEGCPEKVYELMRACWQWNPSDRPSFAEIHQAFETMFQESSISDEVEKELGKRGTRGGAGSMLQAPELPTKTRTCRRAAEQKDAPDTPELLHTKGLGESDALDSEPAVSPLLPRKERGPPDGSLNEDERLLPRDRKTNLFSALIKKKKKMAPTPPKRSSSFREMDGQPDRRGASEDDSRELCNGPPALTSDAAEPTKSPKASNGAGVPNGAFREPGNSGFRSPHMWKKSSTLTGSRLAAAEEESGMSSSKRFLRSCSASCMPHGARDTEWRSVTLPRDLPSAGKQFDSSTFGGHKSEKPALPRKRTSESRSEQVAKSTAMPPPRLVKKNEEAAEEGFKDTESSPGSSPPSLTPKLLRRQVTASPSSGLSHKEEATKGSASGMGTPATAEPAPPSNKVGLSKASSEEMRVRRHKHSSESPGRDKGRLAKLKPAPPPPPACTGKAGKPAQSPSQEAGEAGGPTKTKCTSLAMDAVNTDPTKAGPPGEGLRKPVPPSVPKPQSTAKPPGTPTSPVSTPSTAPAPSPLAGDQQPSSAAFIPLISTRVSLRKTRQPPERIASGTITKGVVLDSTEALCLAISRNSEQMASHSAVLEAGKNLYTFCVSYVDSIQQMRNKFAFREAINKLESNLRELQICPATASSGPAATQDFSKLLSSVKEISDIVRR

NT-3 growth factor receptor (Homo sapiens), sequence (Q16288 32-839 limits assumed): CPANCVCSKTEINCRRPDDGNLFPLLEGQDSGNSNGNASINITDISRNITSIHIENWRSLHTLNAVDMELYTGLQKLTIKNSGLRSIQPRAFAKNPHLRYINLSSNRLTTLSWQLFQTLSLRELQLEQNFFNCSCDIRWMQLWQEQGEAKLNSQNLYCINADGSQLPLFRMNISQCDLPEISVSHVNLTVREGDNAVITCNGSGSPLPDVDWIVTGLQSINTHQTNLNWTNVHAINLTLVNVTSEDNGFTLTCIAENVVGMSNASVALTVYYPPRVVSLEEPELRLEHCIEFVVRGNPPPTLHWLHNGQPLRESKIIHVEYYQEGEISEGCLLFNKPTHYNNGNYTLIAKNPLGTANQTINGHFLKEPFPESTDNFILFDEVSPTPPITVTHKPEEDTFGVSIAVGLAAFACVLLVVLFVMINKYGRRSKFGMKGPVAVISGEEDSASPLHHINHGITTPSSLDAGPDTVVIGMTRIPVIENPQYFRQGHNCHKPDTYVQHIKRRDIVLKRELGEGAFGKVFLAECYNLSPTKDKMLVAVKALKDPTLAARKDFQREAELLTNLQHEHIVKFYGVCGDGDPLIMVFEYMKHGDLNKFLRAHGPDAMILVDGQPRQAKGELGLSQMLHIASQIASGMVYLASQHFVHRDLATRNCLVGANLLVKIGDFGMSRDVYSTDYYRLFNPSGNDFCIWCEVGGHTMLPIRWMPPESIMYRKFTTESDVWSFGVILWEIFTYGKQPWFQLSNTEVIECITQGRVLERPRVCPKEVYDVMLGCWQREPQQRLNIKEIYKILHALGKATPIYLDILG

Activity [1]: 1%
Activity [2]: 29%
Activity [3]: 22%
SMILES: CNC(=O)c1cc(Oc2ccc(NC(=O)Nc3ccc(Cl)c(C(F)(F)F)c3)c(F)c2)ccn1
